The values below come from patent US8377974B2 (Millennium Pharmaceuticals, Inc., priority 2004, dated 2013).

For the test, the target named is T1, human plasma protein factor Xa (Homo sapiens, UniProt P00742).
T1 construct: measure proteolytic activity of the enzyme (factor Xa); purchased Haematologic Technologies (Essex Junction, Vt.); host or cells: human plasma
T1 sequence (P00742 235-488 limits assumed): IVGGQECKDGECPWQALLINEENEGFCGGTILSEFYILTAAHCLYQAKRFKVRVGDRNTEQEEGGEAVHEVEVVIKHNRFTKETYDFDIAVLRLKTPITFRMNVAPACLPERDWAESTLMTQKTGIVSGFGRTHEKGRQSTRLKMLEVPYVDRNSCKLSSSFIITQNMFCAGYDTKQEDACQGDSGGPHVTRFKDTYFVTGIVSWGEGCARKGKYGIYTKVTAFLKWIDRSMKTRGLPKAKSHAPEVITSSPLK
T1 sequence (P00742 41-179 partner limits assumed): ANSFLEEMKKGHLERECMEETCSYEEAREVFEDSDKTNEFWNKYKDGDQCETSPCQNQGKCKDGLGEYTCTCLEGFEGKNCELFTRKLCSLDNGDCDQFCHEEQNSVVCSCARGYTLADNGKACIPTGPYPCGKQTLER
Put plainly: Factor Xa IC50 determination: cleavage of paranitroanilide substrate S-2765 in 96-well plates. It counts as biochemical. The note with it: fXa 1 nM, S-2765 100 μM, Tris buffered saline pH 7.4, room temperature. A digest of the protocol:
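Human plasma factor Xa (1 nM) preincubated 5 min at room temperature with inhibitor (0.01 nM–10 μM final) in Tris-buffered saline pH 7.4 with 5 mM CaCl2, 0.1% BSA, 5% DMSO. S-2765 at 100 μM final; hydrolysis at 405 nm over 2 min. IC50 from 4-parameter fit of initial velocities.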
In turn, `O=C(NCC1CC(c2ccc(-c3ccccc3C(F)(F)F)cc2)=NO1)c1ccc(Cl)s1` (stereo not shown) [Example 187, 5-Chloro-thiophene-2-carboxylic acid [3-(2′-trifluoromethyl-biphenyl-4-yl)-4,5-dihydro-isoxazol-5-ylmethyl]-amide] registered an IC50 of 100 to 500 nM.

`COc1ccc(Oc2cc(C(=N)N(C)C)ccc2-c2cc(CNC(=O)c3ccc(Cl)s3)on2)cc1` [Example 133, 5-Chloro-thiophene-2-carboxylic acid {3-[4-(N,N-dimethyl-carbamimidoyl)-2-(4-methoxy-phenoxy)-phenyl]-isoxazol-5-ylmethyl}-amide]: the IC50 was ≤ 100 nM.

Consider `O=C(NCc1cn(-c2ccc(-n3cccc(Cl)c3=O)cc2)nn1)c1ccc(Cl)s1` [Example 292, 5-Chloro-N-((1-(4-(3-chloro-2-oxopyridin-1(2H)-yl)phenyl)-1H-1,2,3-triazol-4-yl)methyl)thiophene-2-carboxamide], for which the IC50 is ≤ 100 nM.

In the case of `COc1cc(C(=N)N2CCCC2)ccc1-c1cc(CNC(=O)c2ccc(Cl)s2)on1` [Example 120, 5-Chloro-thiophene-2-carboxylic acid {3-[4-(imino-pyrrolidin-1-yl-methyl)-2-methoxy-phenyl]-isoxazol-5-ylmethyl}-amide], the concentration for half-maximal inhibition (IC50) was ≤ 100 nM.

`CN(C)c1cc(C(=N)N2CCCC2)ccc1C1=NOC(CNC(=O)c2ccc(Cl)s2)C1` (stereo not shown) [Example 76, 5-Chloro-thiophene-2-carboxylic acid {3-[2-dimethylamino-4-(imino-pyrrolidin-1-yl-methyl)-phenyl]-4,5-dihydro-isoxazol-5-ylmethyl}-amide] came in with an IC50 of 100 to 500 nM.

For the compound `N=C(c1ccc(-c2cc(CNC(=O)c3ccc(Cl)s3)on2)cc1)N1CCCCC1` [Example 24, 5-Chloro-thiophene-2-carboxylic acid {3-[4-(imino-piperidin-1-yl-methyl)-phenyl]-isoxazol-5-ylmethyl}-amide], the concentration for half-maximal inhibition (IC50) was ≤ 100 nM.

`O=C(NCC1CC(c2ccc(-n3ccccc3=O)cc2)=NO1)c1ccc(Cl)s1` (stereo not shown) [Example 278, 5-Chloro-N-((3-(4-(2-oxopyridin-1(2H)-yl)phenyl)-4,5-dihydroisoxazol-5-yl)methyl)thiophene-2-carboxamide]: the IC50 was ≤ 100 nM.

`Cc1cnccc1Nc1ccc(C2=NOC(CNC(=O)c3ccc(Cl)s3)C2)cc1` (stereo not shown) [Example 400, 5-Chloro-N-((3-(4-(3-methylpyridin-4-ylamino)phenyl)-4,5-dihydroisoxazol-5-yl)methyl)thiophene-2-carboxamide]: the IC50 was ≤ 100 nM.

For `O=C(NCc1cn(-c2ccc(-n3cc(F)ccc3=O)cc2)nn1)c1ccc(Cl)s1` [Example 298, 5-Chloro-N-((1-(4-(5-fluoro-2-oxopyridin-1(2H)-yl)phenyl)-1H-1,2,3-triazol-4-yl)methyl)thiophene-2-carboxamide], the IC50 is ≤ 100 nM.

As to `CCN(C)C(=N)c1ccc(-n2cc(CNC(=O)c3ccc(Cl)s3)nn2)cc1` [Example 314, N-((1-(4-(N-Ethyl-N-methylcarbamimidoyl)phenyl)-1H-1,2,3-triazol-4-yl)methyl)-5-chlorothiophene-2-carboxamide], the IC50 was ≤ 100 nM.

For the compound `COCCN(C)c1cc(C2=NCCN2C)ccc1C1=NOC(CNC(=O)c2ccc(Cl)s2)C1` (stereo not shown) [Example 87], the IC50 was in the range of 100 to 500 nM.

For `CCN(CC)CCN(C)C(=O)c1ccc(-c2cc(CNC(=O)c3ccc(Cl)s3)on2)cc1` [Example 168, 5-Chloro-thiophene-2-carboxylic acid (3-{4-[(2-diethylamino-ethyl)-methyl-carbamoyl]-phenyl}-isoxazol-5-ylmethyl)-amide], the IC50 is ≥ 500 nM.

Regarding `CN1CCN=C1c1ccc(-c2cc(CNC(=O)c3ccc(Cl)s3)on2)c(N2CCOCC2)c1` [Example 99, 5-Chloro-thiophene-2-carboxylic acid {3-[4-(1-methyl-4,5-dihydro-1H-imidazol-2-yl)-2-morpholin-4-yl-phenyl]-isoxazol-5-ylmethyl}-amide], the IC50 was ≤ 100 nM.

Take `O=C(NCc1cn(-c2ccc(-n3cc(Cl)ccc3=O)cc2)nn1)c1ccc(Cl)s1` [Example 299, 5-Chloro-N-((1-(4-(5-chloro-2-oxopyridin-1(2H)-yl)phenyl)-1H-1,2,3-triazol-4-yl)methyl)thiophene-2-carboxamide]: the 50% inhibitory concentration (IC50) was ≤ 100 nM.

`CCOC(=O)C1CCN(C(=N)c2ccc(C3=NOC(CNC(=O)c4ccc(Cl)s4)C3)cc2)CC1` (stereo not shown) [Example 12, 1-{[4-(5-{[(5-Chloro-thiophene-2-carbonyl)-amino]-methyl}-4,5-dihydro-isoxazol-3-yl)-phenyl]-imino-methyl}-piperidine-4-carboxylic acid ethyl ester] registered an IC50 of 100 to 500 nM.

As for `N=C(c1ccc(-c2csc(CNC(=O)c3ccc(Cl)s3)n2)cc1)N1CCCCC1` [Example 363, 5-Chloro-N-((4-(4-(imino(piperidin-1-yl)methyl)phenyl)thiazol-2-yl)methyl)thiophene-2-carboxamide], the IC50 was ≥ 500 nM.

On to `O=C(NCC1CC(c2ccc(Nc3ccncn3)cc2)=NO1)c1ccc(Cl)s1` (stereo not shown) [Example 230, 5-Chloro-thiophene-2-carboxylic acid {3-[4-(pyrimidin-4-ylamino)-phenyl]-4,5-dihydro-isoxazol-5-ylmethyl}-amide], for which the 50% inhibitory concentration (IC50) is 100 to 500 nM.

Regarding `N=C(c1ccc(-n2cnc(CNC(=O)c3ccc(Cl)s3)c2)cc1)N1CCCCC1` [Example 368, 5-Chloro-N-((1-(4-(imino(piperidin-1-yl)methyl)phenyl)-1H-imidazol-4-yl)methyl)thiophene-2-carboxamide], the IC50 was ≤ 100 nM.

Consider `N=C(c1ccc(-c2cc(CNC(=O)c3ccc(Cl)s3)on2)c(N2CCOCC2)c1)N1CCCC1` [Example 100, 5-Chloro-thiophene-2-carboxylic acid {3-[4-(imino-pyrrolidin-1-yl-methyl)-2-morpholin-4-yl-phenyl]-isoxazol-5-ylmethyl}-amide], for which the IC50 was ≤ 100 nM.

As for `CN1CCC(Nc2ccc(-c3cc(CNC(=O)c4ccc(Cl)s4)on3)cc2)CC1` [Example 259, 5-Chloro-thiophene-2-carboxylic acid {3-[4-(1-methyl-piperidin-4-ylamino)-phenyl]-isoxazol-5-ylmethyl}-amide], the IC50 is ≥ 500 nM.

`O=C(NCc1cn(-c2ccc(-n3ccccc3=O)cc2)nn1)c1ccc(Cl)s1` [Example 290, 5-Chloro-N-((1-(4-(2-oxopyridin-1(2H)-yl)phenyl)-1H-1,2,3-triazol-4-yl)methyl)thiophene-2-carboxamide]: the IC50 was ≤ 100 nM.

Consider `CN(C)C(=N)c1ccc(C2=NOC(CNC(=O)c3ccc(Cl)s3)C2)c(OC2CCCCC2)c1` (stereo not shown) [Example 115, 5-Chloro-thiophene-2-carboxylic acid {3-[2-cyclohexyloxy-4-(N,N-dimethyl-carbamimidoyl)-phenyl]-4,5-dihydro-isoxazol-5-ylmethyl}-amide], for which the concentration for half-maximal inhibition (IC50) was ≤ 100 nM.

Regarding `COc1cc(C(=N)N2CCCCC2)ccc1C1=NOC(CNC(=O)c2ccc(Cl)s2)C1` (stereo not shown) [Example 105, 5-Chloro-thiophene-2-carboxylic acid {3-[4-(imino-piperidin-1-yl-methyl)-2-methoxy-phenyl]-4,5-dihydro-isoxazol-5-ylmethyl}-amide], the IC50 is ≤ 100 nM.

On to `CSc1cc(C(=N)N2CCCCC2)ccc1-c1cc(CNC(=O)c2ccc(Cl)s2)on1` [Example 143, 5-Chloro-thiophene-2-carboxylic acid {3-[4-(imino-piperidin-1-yl-methyl)-2-methylsulfanyl-phenyl]-isoxazol-5-ylmethyl}-amide], for which the IC50 is ≥ 500 nM.

For the compound `CN1CCN=C1c1ccc(C2=NOC(CNC(=O)c3ccc(Cl)s3)C2)c(OC2CCCCC2)c1` (stereo not shown) [Example 116, 5-Chloro-thiophene-2-carboxylic acid {3-[2-cyclohexyloxy-4-(1-methyl-4,5-dihydro-1H-imidazol-2-yl)-phenyl]-4,5-dihydro-isoxazol-5-ylmethyl}-amide], the IC50 is ≤ 100 nM.

As for `CN1CCN=C1c1ccc(-c2cncc(CNC(=O)c3ccc(Cl)s3)c2)cc1` [Example 370, 5-Chloro-N-((5-(4-(1-methyl-4,5-dihydro-1H-imidazol-2-yl)phenyl)pyridin-3-yl)methyl)thiophene-2-carboxamide], the IC50 is ≤ 100 nM.

On to `CNC(=N)c1ccc(C2=NOC(C)(CNC(=O)c3ccc(Cl)s3)C2)cc1` (stereo not shown) [Example 69, 5-Chloro-thiophene-2-carboxylic acid {5-methyl-3-[4-(N-methylcarbamimidoyl)-phenyl]-4,5-dihydro-isoxazol-5-ylmethyl}-amide], for which the concentration for half-maximal inhibition (IC50) is ≤ 100 nM.

Turning to `N=C(c1ccc(-c2nc(CNC(=O)c3ccc(Cl)s3)co2)cc1)N1CCCC1` [Example 340, 5-Chloro-N-((2-(4-(imino(pyrrolidin-1-yl)methyl)phenyl)oxazol-4-yl)methyl)thiophene-2-carboxamide], the IC50 was ≤ 100 nM.

On to `O=C(NCC1CC(c2ccc(N3CCOCCC3=O)cc2F)=NO1)c1ccc(Cl)s1` (stereo not shown) [Example 249, 5-Chloro-thiophene-2-carboxylic acid {3-[2-fluoro-4-(5-oxo-[1,4]oxazepan-4-yl)-phenyl]-4,5-dihydro-isoxazol-5-ylmethyl}-amide], for which the IC50 is ≥ 500 nM.

Compound `CN(Cc1ccco1)C(=N)c1ccc(-c2nc(CNC(=O)c3ccc(Cl)s3)co2)cc1` [Example 349, N-((2-(4-(N-(Furan-2-ylmethyl)-N-methylcarbamimidoyl)phenyl)oxazol-4-yl)methyl)-5-chlorothiophene-2-carboxamide] displayed an IC50 of 100 to 500 nM.

Consider `O=C(NCC1CC(c2ccc(-c3cc(Cl)ccc3CN3CCCC3)cc2)=NO1)c1ccc(Cl)s1` (stereo not shown) [Example 205, 5-Chloro-thiophene-2-carboxylic acid [3-(5′-chloro-2′-pyrrolidin-1-ylmethyl-biphenyl-4-yl)-4,5-dihydro-isoxazol-5-ylmethyl]-amide], for which the IC50 was ≤ 100 nM.

One may read the IC50 as the point on the concentration scale where inhibition reaches its midpoint. Low readings indicate inhibition by little substance, high ones a need for much substance.
